Results: patent US7144881B2, “Arylcyclopropylcarboxylic amides as potassium channel openers” (Bristol-Myers Squibb Company, priority 2002, dated 2006)
pEC50: −log10 of the molar value.

Tests used:
[1] = biological target: voltage-gated K+ channel KCNQ2 (Homo sapiens, UniProt O43526); assay: Thallium flux assay for openers of KCNQ potassium channels; type: cell-based; settings: 10 point concentration series, 50% of the maximal response
Excerpt: A thallium flux assay was used to detect and characterize openers of KCNQ potassium channels. The thallium assay is generally described in International application WO 02/31508 published Apr. 18, 2002. More specifically, the thallium influx assay to detect compounds that block or open the voltage-gated K^+ channel KCNQ2 is described in Example IV of the published WO 02/31508 application.
For data analysis, the amplitude of the average of the negative controls was subtracted from all wells. The amplitudes of the test compounds were then compared to the value of four standard deviations of the negative control wells. The lowest concentration of a test compound sufficient to generate a signal amplitude greater than or equal to four standard deviations from the amplitude of the negative controls was defined as the minimal active concentration.
For generating EC50 values, compounds were serially diluted in 1:3 volume increments to produce a 10 point concentration series. EC50 values were calculated by fitting the resulting amplitudes to a single-site logistic equation. EC50 was defined as the concentration of test compound required to yield 50% of the maximal response. Maximal response (Maximal opening) was the largest signal amplitude above the negative control generated by any concentration of a test compound.

mKCNQ2 channels = biological target: T1, mKCNQ2 channels (Mus musculus, UniProt Q9Z351); assay: Whole-cell patch-clamp recordings of mKCNQ2 currents; type: cell-based; settings: HEK 293 stable cell line expressing mKCNQ2
T1 construct: expressed in transfected cells
Procedure: Whole-cell patch-clamp recordings were made from an HEK 293 stable cell line expressing mKCNQ2 channels, maintained in culture for 1–2 days. Patch pipettes had initial resistances of 2.5–4 MΩ. Currents were recorded with an EPC-9 amplifier (HEKA, Lambrecht, Germany) controlled with software (Pulse, HEKA) run on a standard lab PC. Series resistance compensation was used during current recording, and set at 80%. The series resistance (R) and cell capacitance (C) were determined electronically by subtracting the capacitive currents at the onset and offset of a 5 mV voltage step. The cancellation of whole-cell capacitive transients was virtually complete in all cells. Analog current signals were low-pass filtered at 2.9 kHz using a four-pole Bessel filter −3 dB) and stored on a local network server computer at a sampling rate of […]. All recordings were performed at room temperature (20–22° C.). The pipette solution contained (mM): KCl, 150; CaCl2, 2.5; EGTA, 5; MgCl2, 1; HEPES, 10; pH to 7.3 with KOH, and Osmolality of 290–300 mOsm. The extracellular solution contained (mM): NaCl, 140; KCl, 2.5; CaCl2, 2.5; MgCl2, 1; glucose, 10; HEPES, 10; pH to 7.3 with NaOH, and Osmolality of 305–310 mOsm […]

With `O=C(N[C@@H](CO)c1ccc2ccccc2c1)C1CC1c1ccccc1Cl` (stereo partly drawn) [Example 9, 2-(2-Chloro-phenyl)-cyclopropanecarboxylic acid(2-hydroxy-1-naphthalen-2-yl-ethyl)-amide] the pEC50 [1] was 7.66.
With `O=C(N[C@@H](CO)c1ccc2ccccc2c1)C1CC1c1ccccc1F` (stereo partly drawn) [Example 11, 2-(2-Fluoro-phenyl)-cyclopropanecarboxylic acid(2-hydroxy-1-naphthalen-2-yl-ethyl)-amide] the pEC50 [1] was 5.84.
For `O=C(N[C@@H](CO)c1ccc2ccccc2c1)C1CC1c1ccc(F)cc1` (stereo partly drawn) [Example 13, 2-(4-Fluoro-phenyl)-cyclopropanecarboxylic acid(2-hydroxy-1-naphthalen-2-yl-ethyl)-amide], the pEC50 [1] was 7.92, the EC50 (mKCNQ2 channels; @ −40 mV, room temperature) was 0.597 µM and the “Imax (%)” value (mKCNQ2 channels; Imax from Hill-type curve fit) was 1232%.
`O=C(N[C@@H](CO)c1ccc2ccccc2c1)C1CC1c1cc(F)ccc1F` (stereo partly drawn) [Example 14, 2-(2,5-Difluoro-phenyl)-cyclopropanecarboxylic acid(2-hydroxy-1-naphthalen-2-yl-ethyl)-amide] gave a pEC50 [1] of 9.00.
For `O=C(N[C@@H](CO)c1ccc2ccccc2c1)C1CC1c1ccccc1` (stereo partly drawn) [Example 15, 2-(phenyl)-cyclopropanecarboxylic acid(2-hydroxy-1-naphthalen-2-yl-ethyl)-amide], the pEC50 [1] was 9.00.
Molecule `C[C@H](NC(=O)[C@@H]1C[C@H]1c1ccccc1)c1cccc(-c2cccnc2)c1` [Example 32, (S)-2-Phenyl-cyclopropanecarboxylicacid [1-(3-pyridin-3-yl-phenyl)-ethyl]-amide] has a pEC50 [1] of 9.00.
Molecule `C[C@H](NC(=O)C1CC1c1cccc(F)c1)c1cccc(-c2ccc(Cl)nc2)c1` (stereo partly drawn) [Example 34, (S)-2-(3-Fluoro-phenyl)-cyclopropanecarboxylicacid {1-[3-(6-chloro-pyridin-3-yl)-phenyl]-ethyl}-amide] has a pEC50 [1] of 5.66.
